We go through one compound from patent US9957257B2, “Amide compounds as 5-HT4 receptor agonists” (SUVEN LIFE SCIENCES LIMITED, priority 2015, dated 2018).

Structures are written as SMILES.

The nature of data set [1]: Rodent pharmacokinetic study. It is filed as in vivo, Male wistar rats. The following applies: male, Wistar, plasma, rat. How it is done: Male wistar rats (225±25 grams) were used as experimental animals. Three to five animals were housed in each cage. Two days prior to dosing day, male wistar rats (225-250 grams) were anesthetized with isoflurane for surgical placement of jugular vein catheter. Animals were fasted overnight before oral dosing (p.o) and food pellets were allowed 2 hours post dosing, whereas during intravenous dosing food and water were provided as ad libitum. Three rats were dosed with test compounds (3 mg/kg) orally and intravenously (1 mg/kg).
At each time point blood was collected through jugular vein and immediately replenish with an equivalent volume of normal saline from freely moving rats. Collected blood was transferred into a labeled eppendr off containing 10 μL of heparin as anticoagulant. Typically blood samples were collected as following time points: Pre dose, 0.08 (only i.v.), 0.25, 0.5, 1, 2, 4, 6, 8, and 24 hours post dose-(n=3). Blood was centrifuged at 4000 rpm for 10 minutes. Plasma was prepared and stored frozen at −20° C. until analysis. The concentrations of the test compounds were quantified in plasma by qualified LC-MS/MS method using suitable extraction technique. The test compounds were quantified in the calibration range around 2-2000 ng/mL in plasma. Study samples were analyzed using calibration samples in the batch and quality control samples spread across the batch.
Pharmacokinetic parameters Cmax, Tmax, AUCt, T1/2 and Bioavailability were calculated by non-compartmental model using standard non-compartmental model by using WinNonLin 5.0.1 or Phoenix WinNonlin 6.2 version Software package.

Another data set deals with sAPPα. The data set can be described thus: Estimation of mice brain cortical sAPPα levels (ELISA). It is filed as in vivo, Male C57BL/6J mice. The following applies: 1 mg/kg, s.c., 60 minutes post treatment. How it is done: 3. The supernatant was discarded and to the precipitate, 4 times volume (0.8 mL/200 mg tissues) of TBS was added.
4. From the above centrifuged mixture the supernatant was discarded and 10 times volume of 6M Guanidine-HCl in 50 mM Tris buffer pH: 7.6 (500 μL/50 mg tissues) was added.
5. […] From this 5 μL of supernatant solution was taken and diluted with 155 μL of EIA buffer (dilution factor 32).
The entire procedure was followed as described in the ELISA kit manual (Mouse/Rat sAPPα ELISA, Catalog Number: JP27415, Innovation Beyond Limits International, Hamburg, Germany).
Statistical analyses were performed using the Graph Pad Prism (Version 4).

A further data set concerns the target T1, hERG (Homo sapiens, UniProt Q12809).
T1 construct: expressed in transfected cells; host or cells: HEK293 (hERG-HEK293)
Put plainly: Automated hERG patch clamp assay. It is filed as cell-based. As to conditions: hERG-HEK293 cells, whole cell patch clamp. How it is done:
To study the cardiac safety of test compounds using automated hERG patch clamp assay, hERG-HEK293 cells were grown to 70% confluency and were harvested using accumax. The cells were then suspended in complete media and were incubated at 37° C. and 5% CO2 for 30 minutes before using these cells for the whole cell patch clamp assay. Whole cell patch clamp recordings were conducted on Nanion's Patchliner using I-V protocol of voltage step from holding potential of −80 mV to +40 mV for 500 ms and then to test potential for 500 ms and back to holding potential of −80 mV. Pulses were elicited every 10 seconds. Each test compound concentration was incubated for 5 minutes. Data analysis was done by plotting the raw data using Igor Pro software and IC50 values were calculated. Cells with resistance >1 Gohms and tail currents of >200 pA were taken into consideration for data analysis. Quinidine was used as positive control.
A general note: hERG is a cardiac potassium channel; its block is linked to QT prolongation.

Data set [2] in a line: Rodent brain penetration study. It is filed as in vivo, Male Wistar rats. The following applies: male, Wistar, rat, 3 mg/kg, oral (gavage), read-out: Single dose Brain Penetration (Cb/Cp). How it is done:
Male Wistar rats (225±25 grams) were used as experimental animals. Three animals were housed in each cage. Animals were given water and food ad libitum throughout the experiment and maintained on a 12 hours light/dark cycle. Brain penetration was determined in discrete manner in rats. One day prior to dosing day, male wistar rats (225-250 grams) were acclimatized. After acclimatization the rats were grouped according to their weight. In each group, 3 animals were kept in individual cage and allowed free access to food and water. At each time point (0.50, 1 and 2 hours) n=3 animals were used. The test compounds were suitably preformulated and administered orally at (free base equivalent) 3 mg/kg. Blood samples were removed via, cardiac puncture by using isoflurane anesthesia. The animals were sacrificed to collect brain tissue. Plasma was separated and brain samples were homogenized and stored frozen at −20° C. until analysis. The concentrations of the test compounds in plasma and brain were determined using LC-MS/MS method. The test compounds were quantified in plasma and brain homogenate by qualified LC-MS/MS method using suitable extraction technique. The test compounds were quantified in the calibration range of 1-500 ng/mL in plasma and brain homogenate. Study samples were analyzed using calibration samples in the batch and quality control samples spread across the batch. Extent of brain-plasma ratio was calculated (Cb/Cp).

A short description of the next data set: Radial arm maze. The class given is in vivo, rats. As to conditions: p.o. An excerpt: The cognition enhancing properties of test compounds of this invention were estimated by using this model.
Radial arm maze consists of a central hub of 45 cm diameter. Each arm was of dimension 42.5×15×24 cm. The maze was elevated to a height of 1 m above the ground. The animals were placed on a restricted diet until they reached approximately 85% of their free feeding weight. During this diet restriction period animals were habituated to the novel feed (pellets). Once the rats reached approximately 85% of their free feeding weight, rats were habituated to the maze on the 1st and 2nd day. […] Animals were randomized on day 2. On the subsequent days the treatment was given as per the allotment. Each animal was introduced into the maze individually for a period of 10 minutes. The arms were baited only once and the animal had to learn the rule that repeated arm entries would not be rewarded. The trial ended once the rat had visited 16 arms or 10 minutes were over or all the pellets were eaten. The arm entries were recorded using the software. Once the trial was over the rat was removed and the maze was cleaned using soap water.

T1 sequence (Q12809 whole entry): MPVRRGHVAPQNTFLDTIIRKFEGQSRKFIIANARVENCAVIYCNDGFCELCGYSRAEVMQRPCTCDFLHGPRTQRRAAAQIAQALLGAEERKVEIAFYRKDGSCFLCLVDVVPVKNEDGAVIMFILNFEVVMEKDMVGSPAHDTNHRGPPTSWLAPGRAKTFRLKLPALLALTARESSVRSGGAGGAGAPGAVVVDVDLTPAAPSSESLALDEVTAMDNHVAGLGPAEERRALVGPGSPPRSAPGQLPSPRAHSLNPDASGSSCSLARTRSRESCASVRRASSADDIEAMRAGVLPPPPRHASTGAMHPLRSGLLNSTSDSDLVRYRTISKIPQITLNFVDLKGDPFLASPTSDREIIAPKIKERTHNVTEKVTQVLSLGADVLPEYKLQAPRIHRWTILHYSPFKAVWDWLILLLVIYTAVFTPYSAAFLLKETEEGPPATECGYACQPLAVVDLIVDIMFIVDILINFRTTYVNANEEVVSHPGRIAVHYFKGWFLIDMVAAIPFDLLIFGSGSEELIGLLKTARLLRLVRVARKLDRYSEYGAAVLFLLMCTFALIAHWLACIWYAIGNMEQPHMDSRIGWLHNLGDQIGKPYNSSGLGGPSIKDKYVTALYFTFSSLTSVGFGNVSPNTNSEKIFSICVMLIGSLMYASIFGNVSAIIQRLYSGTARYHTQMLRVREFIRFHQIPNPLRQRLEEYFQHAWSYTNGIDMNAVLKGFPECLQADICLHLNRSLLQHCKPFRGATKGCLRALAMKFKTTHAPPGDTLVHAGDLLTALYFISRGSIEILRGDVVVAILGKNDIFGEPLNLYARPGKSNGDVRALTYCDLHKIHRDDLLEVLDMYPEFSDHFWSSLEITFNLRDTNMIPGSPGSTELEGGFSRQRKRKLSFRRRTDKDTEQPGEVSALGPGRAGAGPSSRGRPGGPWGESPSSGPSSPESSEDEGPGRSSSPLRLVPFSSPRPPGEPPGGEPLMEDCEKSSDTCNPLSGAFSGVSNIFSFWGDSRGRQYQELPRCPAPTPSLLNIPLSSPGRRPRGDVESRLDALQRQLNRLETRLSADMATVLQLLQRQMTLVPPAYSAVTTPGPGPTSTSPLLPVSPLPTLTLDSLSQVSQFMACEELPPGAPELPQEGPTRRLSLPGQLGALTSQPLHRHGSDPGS

For orientation: AUC(0-t) means the area under the concentration-time curve up to a stated or last time point. The term half-life denotes how long it takes for the measured level to halve. High values mean slow decline, low ones rapid decline. Broadly, the bioavailability is the share of a dose that reaches the circulation, judged against a reference dose that is usually intravenous. Read a high bioavailability as much systemic uptake. Broadly, the Cmax is the peak of the concentration-time curve. As a reminder, the Tmax is the time at which the peak concentration occurs. In general, IC50 refers to the point on the concentration scale where inhibition reaches its midpoint. Low readings indicate greater potency, high ones weaker potency. In data set [1] (1 mg/kg, intravenous (bolus)), `CC(C)(O)CN1CCC(F)(CNC(=O)c2cc(Cl)c(N)c3ccoc23)CC1` [Example 50, 4-Amino-5-chloro-N-{[4-fluoro-1-(2-hydroxy-2-methylpropyl)-4-piperidinyl]methyl}benzofuran-7-carboxamide L(+)-tartarate] had an AUC(0-t) of 182 ± 37 ng·h/mL and a half-life of 1.2 h. Also, the bioavailability in data set [1] (3 mg/kg oral vs 1 mg/kg intravenous) was found to be 63 ± 13%. Also, in data set [1] (3 mg/kg, oral (gavage)), the AUC(0-t) came out at 346 ± 71 ng·h/mL, the Cmax worked out at 230 ± 56 ng/mL, the Tmax stood at 0.25 h and the half-life is 1.5 h. In addition, the “increase in mice brain cortical sAPPα levels” value in the data set with sAPPα is on record as 44%. The IC50 at hERG was over 10 µM. In addition, the Kp in data set [2] turned out to be 1.48 ± 0.26. Besides, in the data set “Radial arm maze”, the “Reversal of Scopolamine Induced amnesia - Effective dose range” value is 1 mg/kg, p.o.
